This is an account of results in patent US20040023884A1, “Biologically active peptides from functional domains of bactericidal/permeability-increasing protein and uses thereof” (priority 1993, published 2004).

Assay [1] deals with E. coli 0111:B4 (smooth) bacteria. Briefly: Radial diffusion bactericidal assay, E. coli 0111:B4. It is filed as cell-based. The note with it: radial diffusion; PROBIT analysis; E. coli O111:B4 (smooth).
The next assay concerns Staphylococcus aureus. The assay is described as follows: Radial diffusion bactericidal assay, Staphylococcus aureus. It is filed as cell-based. The following applies: radial diffusion; PROBIT analysis; S. aureus.
In assay [2] the test system is rough mutant E. coli J5 bacteria. The assay is described as follows: Radial diffusion bactericidal assay, E. coli J5. It is filed as cell-based. The note with it: radial diffusion; PROBIT analysis; E. coli J5 (rough). The method in brief:
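Wells received 5 or 10 μL of BPI fragment, pre-incubated 3 h at 37 °C. The underlayer agarose carried washed log-phase organisms at 4×10^6 CFU/mL.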

The next assay deals with Candida albicans. It is filed as cell-based.
A further assay relates to RAW 264.7 cells. Briefly: LPS neutralization cellular proliferation assay, RAW 264.7 cells. It is filed as cell-based, mouse. As for the experimental part:
In this assay, mouse RAW 264.7 cells (ATCC Accession No. T1B71), maintained in RPMI 1640 media (GIBCO), supplemented with 10 mM HEPES buffer (pH 7.4), 2 mM L-glutamine, penicillin (100U/mL), streptomcin (100 μg/mL), 0.075% sodium bicarbonate, […] 2-mercaptoethanol and 10% fetal bovine serum (Hyclone, Inc., Logan, Utah), were first induced by incubation in the presence of 50U/mL recombinant mouse y-interferon (Genzyme, Cambridge, Mass.) for 24 h prior to assay. Induced cells were then mechanically collected and centrifuged at 500×g at 4° C. and then resuspended in 50 mL RPMI 1640 media (without supplements), re-centrifuged and again resuspended in RPMI 1640 media (without supplements). The cells were counted and their concentration adjusted to 2×10^5 cells/mL and 100 μL aliquots were added to each well of a 96-well microtitre plate. The cells were then incubated for about 15 hours with E. coli O113 LPS (Control Standard. Assoc. of Cape Cod. Woods Hole, Mass.), which was added in 100 μL/well aliquots at a concentration of […] in serum-free RPMI 1640 media (this concentration being the result of titration experiments in which LPS concentration was varied between 50 pg/mL and 100 ng/mL). This incubation was performed in the absence or presence of BPI functional domain peptides in varying concentrations between 25 ng/mL and 50 μg/mL. Recombinant human BPI was used as a positive control at a concentration of 1 μg/mL. Cell proliferation was quantitatively measured by the addition of 1 μCi/well [^3H]-thymidine 5 hours after the time of initiation of the assay. After the 15-hour incubation, labeled cells were harvested onto glass fiber filters with a cell harvester (Inotech Biosystems, EQ-384, Sample Processing and Filter Counting System, Lansing, Mich.).

≈ marks a conversion by molar mass, not a printed value. Bridge positions count the residues as written; N and C are the ends. Square brackets hold non-standard residues; d marks the D form. Ends that are not written are not given here. Peptide text beside a SMILES is read from it. 1Nal = N[C@@H](Cc1cccc2ccccc12)C(=O)O

Turning to `CC[C@H](C)[C@H](NC(=O)[C@H](CC(C)C)NC(=O)[C@H](Cc1cccc2ccccc12)NC(=O)CNC(=O)[C@@H](NC(=O)[C@H](CCCCN)NC(=O)[C@H](CO)NC(=O)[C@@H](N)CCCCN)C(C)C)C(=O)N[C@@H](CCC(N)=O)C(=O)N[C@@H](CC(C)C)C(=O)N[C@@H](Cc1ccccc1)C(=O)N[C@@H](Cc1cccc2ccccc12)C(=O)N[C@@H](CCCCN)C(=O)N[C@@H](CCCCN)C(=O)O` [BPI.148, KSKVGAβ-(1-naphthyl)LIQLFAβ-(1-naphthyl)KK] (H-KSKVG[1Nal]LIQLF[1Nal]KK-OH; N-terminus and C-terminus assumed), the “pmol added to well to achieve a 30 mm^2 bactericidal zone, E. coli O111:B4” value (“pmol added to well … E. coli O111:B4” below) in assay [1] is “b (no detectable activity up to 5 μg/well)”. Moreover, the “pmol added to well to achieve a 30 mm^2 bactericidal zone, S. aureus” value (“pmol added to well … S. aureus” for short) in the assay on Staphylococcus aureus is “b (no detectable activity up to 5 μg/well)”. Moreover, the “pmol added to well to achieve a 30 mm^2 bactericidal zone, E. coli J5” value (“pmol added to well … E. coli J5” below) in assay [2] is given as 4,206.57 pmol. Further, the “MIC C. alb” value against Candida albicans amounted to 50.00 µg/mL (≈ 28 µM).

On to `CC(C)C[C@H](NC(=O)[C@H](Cc1ccccc1)NC(=O)[C@H](CCCNC(=N)N)NC(=O)[C@H](CCCCN)NC(=O)[C@H](CCC(N)=O)NC(=O)[C@H](C)NC(=O)[C@H](CCCCN)NC(=O)[C@H](Cc1c[nH]c2ccccc12)NC(=O)[C@H](CCCCN)NC(=O)[C@H](CCCCN)NC(=O)[C@H](CC(C)C)NC(=O)[C@H](Cc1ccccc1)NC(=O)[C@H](CCCNC(=N)N)NC(=O)[C@H](Cc1cccc2ccccc12)NC(=O)[C@H](Cc1cccc2ccccc12)NC(=O)[C@H](C)NC(=O)[C@H](CCCCN)NC(=O)[C@H](Cc1c[nH]c2ccccc12)NC(=O)[C@@H](N)CCCCN)C(=O)N[C@@H](CCCCN)C(=O)O` [BPI.154] (H-KWKA[1Nal][1Nal]RFLKKWKAQKRFLK-OH; N-terminus and C-terminus assumed), for which, in assay [1], the “pmol added to well … E. coli O111:B4” value is given as 2,977.76 pmol. The “pmol added to well … S. aureus” value with Staphylococcus aureus was 30,052,224.71 pmol. Also, the “pmol added to well … E. coli J5” value in assay [2] stood at 197.00 pmol. Further, in the assay on Candida albicans, the “MIC C. alb” value was more than 100.00 µg/mL.

For the molecule `CC(C)C[C@H](NC(=O)[C@H](Cc1ccccc1)NC(=O)[C@H](CCCNC(=N)N)NC(=O)[C@H](Cc1cccc2ccccc12)NC(=O)[C@H](Cc1cccc2ccccc12)NC(=O)[C@H](C)NC(=O)[C@H](CCCCN)NC(=O)[C@H](Cc1c[nH]c2ccccc12)NC(=O)[C@H](CCCCN)NC(=O)[C@H](CCCCN)NC(=O)[C@H](CC(C)C)NC(=O)[C@H](Cc1ccccc1)NC(=O)[C@H](CCCNC(=N)N)NC(=O)[C@H](CCCCN)NC(=O)[C@H](CCC(N)=O)NC(=O)[C@H](C)NC(=O)[C@H](CCCCN)NC(=O)[C@H](Cc1c[nH]c2ccccc12)NC(=O)[C@@H](N)CCCCN)C(=O)N[C@@H](CCCCN)C(=O)O` [BPI.155] (H-KWKAQKRFLKKWKA[1Nal][1Nal]RFLK-OH; N-terminus and C-terminus assumed), the “pmol added to well … E. coli O111:B4” value in assay [1] was 53,027,986.44 pmol. Further, the “pmol added to well … S. aureus” value in the assay with Staphylococcus aureus was 5,530,185,440.73 pmol. Besides, the “pmol added to well … E. coli J5” value in assay [2] was 5,912.26 pmol. The “MIC C. alb” value in the assay with Candida albicans is more than 100.00 µg/mL.

Consider `CC[C@H](C)[C@H](NC(=O)[C@H](CC(C)C)NC(=O)[C@H](Cc1c[nH]c2ccccc12)NC(=O)CNC(=O)[C@@H](NC(=O)[C@H](CCCCN)NC(=O)[C@H](CO)NC(=O)[C@H](CCCCN)NC(=O)[C@H](CCCCN)NC(=O)[C@H](CC(C)C)NC(=O)[C@H](Cc1ccccc1)NC(=O)[C@H](CCCNC(=N)N)NC(=O)[C@H](Cc1cccc2ccccc12)NC(=O)[C@H](CCC(N)=O)NC(=O)[C@H](C)NC(=O)[C@H](CCCCN)NC(=O)[C@H](Cc1cccc2ccccc12)NC(=O)[C@@H](N)CCCCN)C(C)C)C(=O)N[C@@H](CCC(N)=O)C(=O)N[C@@H](CC(C)C)C(=O)N[C@@H](Cc1c[nH]c2ccccc12)C(=O)N[C@@H](Cc1c[nH]cn1)C(=O)N[C@@H](CCCCN)C(=O)N[C@@H](CCCCN)C(N)=O` [BPI.159] (H-K[1Nal]KAQ[1Nal]RFLKKSKVGWLIQLWHKK-NH2; N-terminus and C-terminus assumed), for which the “pmol added to well … E. coli O111:B4” value in assay [1] was 152,678.66 pmol. Further, the “pmol added to well … S. aureus” value in the assay with Staphylococcus aureus is given as 14,387.00 pmol. In assay [2], the “pmol added to well … E. coli J5” value is listed as 765.43 pmol. In addition, in the assay on Candida albicans, the “MIC C. alb” value came out at 50.00 µg/mL (≈ 15.9 µM).

For `CC(C)C[C@H](NC(=O)[C@H](Cc1ccccc1)NC(=O)[C@H](CCCNC(=N)N)NC(=O)[C@H](Cc1cccc2ccccc12)NC(=O)[C@H](CCC(N)=O)NC(=O)[C@H](C)NC(=O)[C@H](CCCCN)NC(=O)[C@H](Cc1cccc2ccccc12)NC(=O)[C@H](CCCCN)NC(=O)[C@H](CCCCN)NC(=O)[C@H](CC(C)C)NC(=O)[C@H](Cc1ccccc1)NC(=O)[C@H](CCCNC(=N)N)NC(=O)[C@H](Cc1cccc2ccccc12)NC(=O)[C@H](CCC(N)=O)NC(=O)[C@H](C)NC(=O)[C@H](CCCCN)NC(=O)[C@H](Cc1cccc2ccccc12)NC(=O)[C@@H](N)CCCCN)C(=O)N[C@@H](CCCCN)C(N)=O` [BPI.160] (H-K[1Nal]KAQ[1Nal]RFLKK[1Nal]KAQ[1Nal]RFLK-NH2; N-terminus and C-terminus assumed), in assay [1], the “pmol added to well … E. coli O111:B4” value is given as 2,967.57 pmol. The “pmol added to well … S. aureus” value in the assay on Staphylococcus aureus is reported as 352,608.37 pmol. Further, the “pmol added to well … E. coli J5” value in assay [2] is listed as 288.78 pmol. In addition, the “MIC C. alb” value in the assay on Candida albicans is more than 100.00 µg/mL.

With `C[C@@H]1NC(=O)[C@H](CCCCN)NC(=O)[C@H](Cc2c[nH]c3ccccc23)NC(=O)[C@H](CCCCN)NC(=O)[C@@H](N)CSSC[C@@H](C(N)=O)NC(=O)[C@H](Cc2ccccc2)NC(=O)[C@H](CCCNC(=N)N)NC(=O)[C@H](CCCCN)NC(=O)[C@H](CCC(N)=O)NC1=O` [BPI.169] (H-CKWKAQKRFC-NH2; disulfide 1-10; N-terminus and C-terminus assumed), the “pmol added to well … E. coli O111:B4” value in assay [1] is on record as 36,025.95 pmol. Also, the “pmol added to well … S. aureus” value in the assay with Staphylococcus aureus was 17,281.61 pmol. For the same molecule, in assay [2], the “pmol added to well … E. coli J5” value was 4,893.83 pmol. The “MIC C. alb” value with Candida albicans is more than 100.00 µg/mL.

As to KSKVGWLIQLFHKK [BPI.13p], in the assay on RAW 264.7 cells, the “EC50 (peptide concentration at which the growth inhibitory effect of LPS was reversed by 50%)” value turned out to be 2.0 ± 0.3 µg/mL and the “IC50 (peptide concentration at which RAW cell growth was inhibited by 50%)” value is more than 50 µg/mL.

For KSKVKALIQLFHKK [BPI.161], in assay [1], the “pmol added to well … E. coli O111:B4” value is “b (no detectable activity up to 5 μg/well)”. The “pmol added to well … S. aureus” value with Staphylococcus aureus is 100,476.32 pmol. Besides, the “pmol added to well … E. coli J5” value in assay [2] is listed as 1,201.79 pmol. Further, the “MIC C. alb” value in the assay on Candida albicans was 3.13 µg/mL.

On to KWKAQKRF [BPI.167], for which the “pmol added to well … E. coli O111:B4” value in assay [1] is recorded as “b (no detectable activity up to 5 μg/well)”. Further, in the assay on Staphylococcus aureus, the “pmol added to well … S. aureus” value is “b (no detectable activity up to 5 μg/well)”. For the same molecule, in assay [2], the “pmol added to well … E. coli J5” value was 25,489.99 pmol. Also, the “MIC C. alb” value in the assay on Candida albicans was more than 50.00 µg/mL.
